# Legend:
# [1] = Antimelanogenic activity in theophylline-stimulated mouse B16-4A5 cells assessed as inhibition of melanogenesis at 0.3 uM after 72 hrs relative to control; type: functional; details: B16-4A5, 72 h
# [2] = Antimelanogenic activity in theophylline-stimulated mouse B16-4A5 cells assessed as inhibition of melanogenesis at 1 uM after 72 hrs relative to control; type: functional; details: B16-4A5, 72 h
# [3] = Antimelanogenic activity in theophylline-stimulated mouse B16-4A5 cells assessed as inhibition of melanogenesis at 3 uM after 72 hrs relative to control; type: functional; details: B16-4A5, 72 h
# [4] = Antimelanogenic activity in theophylline-stimulated mouse B16-4A5 cells assessed as inhibition of melanogenesis at 10 uM after 72 hrs relative to control; type: functional; details: B16-4A5, 72 h
# [5] = Antimelanogenic activity in theophylline-stimulated mouse B16-4A5 cells assessed as inhibition of melanogenesis after 72 hrs relative to control; type: functional, cell-based
# [6] = Cytotoxicity against theophylline-stimulated mouse B16-4A5 cells assessed as cell viability at 0.3 uM after 72 hrs by MTT assay relative to control; type: toxicity; details: theophylline-stimulated B16-4A5 cells, read-out: Activity
# [7] = Cytotoxicity against theophylline-stimulated mouse B16-4A5 cells assessed as cell viability at 1 uM after 72 hrs by MTT assay relative to control; type: toxicity; details: theophylline-stimulated B16-4A5 cells, read-out: Activity
# [8] = Cytotoxicity against theophylline-stimulated mouse B16-4A5 cells assessed as cell viability at 3 uM after 72 hrs by MTT assay relative to control; type: toxicity; details: theophylline-stimulated B16-4A5 cells, read-out: Activity
# [9] = Cytotoxicity against theophylline-stimulated mouse B16-4A5 cells assessed as cell viability at 10 uM after 72 hrs by MTT assay relative to control; type: toxicity; details: theophylline-stimulated B16-4A5 cells, read-out: Activity
# [10] = Potency index, ratio of arbutin IC50 to compound IC50 for antimelanogenic activity in mouse B16-4A5 cells; type: functional
# [11] = Downregulation of tyrosinase expression in theophylline-stimulated mouse B16-4A5 cells assessed as ratio of tyrosinase mRNA expression to beta-actin mRNA expression at 3 uM after 72 hrs by qRT-PCR analysis (reference value: […] +/- […]); type: functional, cell-based
# [12] = Downregulation of tyrosinase expression in theophylline-stimulated mouse B16-4A5 cells assessed as ratio of tyrosinase mRNA expression to beta-actin mRNA expression at 10 uM after 72 hrs by qRT-PCR analysis (reference value: […] +/- […]); type: functional, cell-based
# [13] = Downregulation of TRP1 expression in theophylline-stimulated mouse B16-4A5 cells assessed as ratio of TRP1 mRNA expression to beta-actin mRNA expression at 3 uM after 72 hrs by qRT-PCR analysis (reference value: […] +/- […]); type: functional, cell-based
# [14] = Downregulation of TRP1 expression in theophylline-stimulated mouse B16-4A5 cells assessed as ratio of TRP1 mRNA expression to beta-actin mRNA expression at 10 uM after 72 hrs by qRT-PCR analysis (reference value: […] +/- […]); type: functional, cell-based
# [15] = Downregulation of TRP2 expression in theophylline-stimulated mouse B16-4A5 cells assessed as ratio of TRP2 mRNA expression to beta-actin mRNA expression at 3 uM after 72 hrs by qRT-PCR analysis (reference value: […] +/- […]); type: functional, cell-based
# [16] = Downregulation of TRP2 expression in theophylline-stimulated mouse B16-4A5 cells assessed as ratio of TRP2 mRNA expression to beta-actin mRNA expression at 10 uM after 72 hrs by qRT-PCR analysis (reference value: […] +/- […]); type: functional, cell-based
# [17] = Antimelanogenic activity in theophylline-stimulated mouse B16-4A5 cells assessed as inhibition of melanogenesis at 300 uM after 72 hrs relative to control; type: functional; details: B16-4A5, 72 h
# [18] = Antimelanogenic activity in theophylline-stimulated mouse B16-4A5 cells assessed as inhibition of melanogenesis at 1000 uM after 72 hrs relative to control; type: functional; details: B16-4A5, 72 h
# [19] = Cytotoxicity against theophylline-stimulated mouse B16-4A5 cells assessed as cell viability at 30 uM after 72 hrs by MTT assay relative to control; type: toxicity; details: theophylline-stimulated B16-4A5 cells, read-out: Activity
# [20] = Cytotoxicity against theophylline-stimulated mouse B16-4A5 cells assessed as cell viability at 100 uM after 72 hrs by MTT assay relative to control; type: toxicity; details: theophylline-stimulated B16-4A5 cells, read-out: Activity
# [21] = Cytotoxicity against theophylline-stimulated mouse B16-4A5 cells assessed as cell viability at 300 uM after 72 hrs by MTT assay relative to control; type: toxicity; details: theophylline-stimulated B16-4A5 cells, read-out: Activity
# [22] = Cytotoxicity against theophylline-stimulated mouse B16-4A5 cells assessed as cell viability at 1000 uM after 72 hrs by MTT assay relative to control; type: toxicity; details: theophylline-stimulated B16-4A5 cells, read-out: Activity
# cells [23] = details: Mus musculus, B16-4A5, 72 h, read-out: INH
# Description: Antimelanogenic activity in theophylline-stimulated mouse B16-4A5 cells assessed as inhibition of melanogenesis at 30 uM after 72 hrs relative to control
# cells [24] = details: Mus musculus, B16-4A5, 72 h, read-out: INH; remark: listed apart in the source
Compound,inhibition at 0.3 µM [1] [%],inhibition at 1 µM [2] [%],inhibition at 3 µM [3] [%],inhibition at 10 µM [4] [%],IC50 [5] [µM],"viability at 72 h, 0.3 µM [6] [%]","viability at 72 h, 1 µM [7] [%]","viability at 72 h, 3 µM [8] [%]","viability at 72 h, 10 µM [9] [%]",Ratio IC50 [10],Ratio [11],Ratio [12],Ratio [13],Ratio [14],Ratio [15],Ratio [16],further results
C=C[C@H](OC/C=C/c1ccc(OC(C)=O)cc1)c1ccc(OC(C)=O)cc1,-5.9,10,58.5,117,2.5,98.1,82.9,68.5,26.5,>25 - 70,0.87,0.53,0.76,0.99,0.72,1.43,
OC[C@H]1O[C@@H](Oc2ccc(O)cc2)[C@H](O)[C@@H](O)[C@@H]1O [ARBUTIN],,,,,,,,,,,,,,,,,"inhibition at 300 µM [17]: 61.5%; inhibition at 1000 µM [18]: 83.7%; viability at 72 h, 30 µM [19]: 82.4%; viability at 72 h, 100 µM [20]: 78.1%; viability at 72 h, 300 µM [21]: 79.8%; viability at 72 h, 1000 µM [22]: 53.1%; inhibition at 30 µM (cells [23]): 20.4%; inhibition at 100 µM (cells [24]): 38.1%"
C=C[C@H](OC(C)=O)c1ccc(OC(C)=O)cc1 [1'-ACETOXYCHAVICOL ACETATE],9.3,6.2,29.8,73.1,5,103,102,99.9,99.9,>25 - 70,1,0.49,0.86,0.5,1.08,0.34,
